In US20250084453A1, “SYSTEMS, COMPOSITIONS AND METHODS FOR IDENTIFYING E3 LIGASE SUBSTRATES BY UBIQUITIN BIOTINYLATION” (The Broad Institute, Inc., priority 2022, published 2025):

System: CRBN E3 ligase
Assay: Mass spectrometry of streptavidin pulldown of biotinylated ubiquitinated proteins, CRBN-BirA 293T cells with Avi-Ub or A3-Ub
Type: cell-based, human
Description: The cells were either treated or untreated with carfilzomib (0.4 μM) for 1 hour and were either treated or untreated with the CRBN-IMiD modifying agent CC-885 (1 μM) for another hour. […] As discussed above in Example 1, the GSPT1 substrate of BirA-tagged CRBN is expressed endogenously in 293T cells.
For such MS analyses, 50 μl of resuspended streptavidin beads were incubated with 1 ml of cell lysates (3 mg/ml) at 4° C. overnight. On the next day, the beads were pelleted (400×g, 1 minute), washed two times with 2% SDS (2% SDS, 25 mM Tris-HCl pH 7.5), and then washed three times with 6M urea (6M urea, 50 mM Tris-HCl pH 8). Each wash was performed by rotating the samples at room temperature for at least five minutes. Following the washes, the beads were resuspended in 90 μl of 2M urea, to which 10 μl of 0.1M TCEP (tris(2-carboxyethyl)phosphine, reducing agent) was added for a final concentration of 10 mM TCEP. The samples were agitated at 37° C. for 30 minutes to allow for protein reduction. Next, 10 μl of 0.165 M IAA, (iodoacetamide, alkylating agent) was added to a final concentration of 15 mM IAA. The samples were agitated in the dark at room temperature for 45 minutes. Thereafter, 1 μg of trypsin/LysC (Promega, Trypsin/Lys-C Mix, Mass Spec Grade, V5071) was added to each sample, and the samples were agitated for 3-4 hours at 37° C. Subsequently, 0.5 μg of trypsin/LysC (Promega, Trypsin/Lys-C Mix, Mass Spec Grade, V5071) was added to each sample, and the samples were agitated overnight at 37° C. On the next day, the supernatant containing the digested peptides was collected. The beads were washed two times with HPLC-grade water and were combined with the previously collected supernatant. Samples were centrifuged at 21,000×g for 10 minutes, and the clarified supernatant at the top was saved. Samples were acidified by the addition of 50% formic acid to a final concentration of 2%. Samples were vacuum dried (Speedvac) overnight and kept at −80° C. until ready for analysis by MS. […]
The preparation of cellular lysate was as described above for Cell Lysis, except that the RIPA buffer was supplemented with COMPLETE™ EDTA-free protease inhibitor cocktail (Roche; 04693159001; 1 tablet per 10 ml of buffer), benzonase (Millipore; E1014; 1 μl per 10 ml of buffer), 1.5 mM MgCl2, 1 mM EGTA, and 10 mM NEM (N-ethylmaleimide). For each sample, 1 ml of 3 mg/ml lysate was rotated overnight at 4° C. with 50 μl of resuspended streptavidin Sepharose beads (CYTIVA™; 17511301), which were pre-washed with RIPA lysis buffer 3 times. For all steps that required pelleting of beads, centrifugation was performed at 400×g for 1 minute. On the next day, streptavidin beads were pelleted, and the supernatant (a.k.a. flow-through) was either saved for analysis by Western blotting or was discarded.

[1] = Table 3 (head Avi-, text A3-Ub), DMSO 0
[2] = Table 3 (head Avi-, text A3-Ub), DMSO 3
[3] = Table 3 (head Avi-, text A3-Ub), DMSO 5
[4] = Table 3 (head Avi-, text A3-Ub), DMSO 6
[5] = Table 3 (head Avi-, text A3-Ub), DMSO 7
[6] = Table 3 (head Avi-, text A3-Ub), DMSO 9
[7] = Table 3 (head Avi-, text A3-Ub), DMSO 15

Cc1ccc(NC(=O)NCc2ccc3c(c2)CN(C2CCC(=O)NC2=O)C3=O)cc1Cl (stereo not drawn) [CC-885]
Most upregulated proteins in streptavidin pulldown versus DMSO (A3-Ub, triplicates, log2 FC and p-value (limma), FIG. 9): GSPT1 and GSPT2
# of PSMs, GSPT1 (Table 2, Avi-Ub, DMSO 0): 25
# of PSMs, GSPT2 (Table 2, Avi-Ub, DMSO 0): 13
# of PSMs, POLR2A (Table 2, Avi-Ub, DMSO 9): 11
# of PSMs, PSMD4 (Table 2, Avi-Ub, DMSO 10): 11
# of PSMs, VCL (Table 2, Avi-Ub, DMSO 10): 56
# of PSMs, SMC1A (Table 2, Avi-Ub, DMSO 12): 13
# of PSMs, H2AFV (Table 2, Avi-Ub, DMSO 14): 14
# of PSMs, CTNNA1 (Table 2, Avi-Ub, DMSO 15): 12
# of PSMs, gene symbol printed as image P00007 (Table 2, Avi-Ub, DMSO 16): 18
# of PSMs, DYNC1H1 (Table 2, Avi-Ub, DMSO 17): 13
# of PSMs, RPS3 (Table 2, Avi-Ub, DMSO 17): 21
# of PSMs, HSPA1B; HSPA1A (Table 2, Avi-Ub, DMSO 18): 18
# of PSMs, HIST2H2AC (Table 2, Avi-Ub, DMSO 19): 18
# of PSMs, UBE2K (Table 2, Avi-Ub, DMSO 19): 17
# of PSMs, CTNNB1 (Table 2, Avi-Ub, DMSO 20): 15
# of PSMs, HSPA8 (Table 2, Avi-Ub, DMSO 20): 13
# of PSMs, MCCC1 (Table 2, Avi-Ub, DMSO 20): 16
# of PSMs, PRPF8 (Table 2, Avi-Ub, DMSO 20): 19
# of PSMs, UBE2N (Table 2, Avi-Ub, DMSO 20): 14
# of PSMs, VCP (Table 2, Avi-Ub, DMSO 20): 11
# of PSMs, DSP (Table 2, Avi-Ub, DMSO 21): 14
# of PSMs, gene symbol printed as image P00006 (Table 2, Avi-Ub, DMSO 21): 13
# of PSMs, EEF2 (Table 2, Avi-Ub, DMSO 22): 13
# of PSMs, HSP90AB1 (Table 2, Avi-Ub, DMSO 22): 15
# of PSMs, gene symbol printed as image P00001 (Table 2, Avi-Ub, DMSO 22): 15
# of PSMs, gene symbol printed as image P00003 (Table 2, Avi-Ub, DMSO 22): 14
# of PSMs, AMOT (Table 2, Avi-Ub, DMSO 23): 19
# of PSMs, HSP90AA1 (Table 2, Avi-Ub, DMSO 24): 13
# of PSMs, PRKDC (Table 2, Avi-Ub, DMSO 24): 17
# of PSMs, FASN (Table 2, Avi-Ub, DMSO 28): 17
# of PSMs, USP9X (Table 2, Avi-Ub, DMSO 32): 21
# of PSMs, UBA1 (Table 2, Avi-Ub, DMSO 34): 31
# of PSMs, gene symbol printed as image P00004 (Table 2, Avi-Ub, DMSO 34): 30
# of PSMs, gene symbol printed as image P00005 (Table 2, Avi-Ub, DMSO 36): 29
# of PSMs, UBE2O (Table 2, Avi-Ub, DMSO 37): 23
# of PSMs, UBA6 (Table 2, Avi-Ub, DMSO 39): 37
# of PSMs, gene symbol printed as image P00002 (Table 2, Avi-Ub, DMSO 39): 33
# of PSMs, PCCA (Table 2, Avi-Ub, DMSO 45): 41
# of PSMs, ACACA (Table 2, Avi-Ub, DMSO 60): 52
# of PSMs, PC (Table 2, Avi-Ub, DMSO 116): 104
# of PSMs, ACACB [1]: 17
# of PSMs, GSPT1 [1]: 30
# of PSMs, GSPT2 [1]: 20
# of PSMs, HIST1H1D [1]: 5
# of PSMs, VCL [1]: 9
# of PSMs, CCDC144A [2]: 10
# of PSMs, DDX5 [2]: 5
# of PSMs, HIST2H2BF [3]: 5
# of PSMs, SPEN [3]: 9
# of PSMs, HIST2H2BE [4]: 6
# of PSMs, THAP5 [4]: 7
# of PSMs, gene symbol printed as image P00009 [4]: 6
# of PSMs, CCT8 [5]: 14
# of PSMs, EEF1A1 [5]: 6
# of PSMs, EEF2 [5]: 5
# of PSMs, ENO1 [5]: 6
# of PSMs, UBE2N [5]: 6
# of PSMs, HIST1H4A . . . [6]: 9
# of PSMs, HSP90AB1 [6]: 9
# of PSMs, gene symbol printed as image P00010 (Table 3 (head Avi-, text A3-Ub), DMSO 10): 11
# of PSMs, HSP90AA1 (Table 3 (head Avi-, text A3-Ub), DMSO 14): 12
# of PSMs, HSPA1B; HSPA1A [7]: 6
# of PSMs, HSPA8 [7]: 10
# of PSMs, gene symbol printed as image P00008 (Table 3 (head Avi-, text A3-Ub), DMSO 23): 17
# of PSMs, MCCC1 (Table 3 (head Avi-, text A3-Ub), DMSO 26): 24
# of PSMs, ACACA (Table 3 (head Avi-, text A3-Ub), DMSO 71): 75
# of PSMs, PCCA (Table 3 (head Avi-, text A3-Ub), DMSO 106): 103
# of PSMs, PC (Table 3 (head Avi-, text A3-Ub), DMSO 155): 167
